The conditions of assay [1]: fenbufen analogs, Child, et al.; cited from earlier work.
In assay [2] the target is T1, Recombinant Human CHO Stromelysin (MMP-3) (Homo sapiens, UniProt P08254).
T1 construct: made in house; host or cells: CHO cells
In words: P218 quenched fluorescence (microfluorometric profiling) assay, MMP-3. The assay is classed as biochemical.
From the text: P218 is a synthetic substrate containing a 4-acetyl-7-methoxycoumarin (MCA) group in the N-terminal position and a 3-[2, 4-dinitrophenyl]-L-2,3-diaminopropionyl (DPA) group internally.
The reaction was stopped by addition of soybean trypsin inhibitor (SBTI; 5:1 w/w to trypsin concentration). This activation protocol results in the formation of 45 kDa active MMP-3, which still contains the C-terminal portion of the enzyme.
Microfluorometric Reaction Buffer (MRB): Dilution of test compounds, enzymes, and P218 substrate for the microfluorometric assay were made in microfluorometric reaction buffer consisting of 50 mM 2-(N-morpholino)ethanesulfonic acid (MES) at pH 6.5 with 10 mM CaCl2, 150 mM NaCl, 0.005% Brij-35 and 1% DMSO.
MMP Microfluorometric Profiling Assay. The assay is done with a final substrate concentration of 6 μM P218 and approximately 0.5 to 0.8 nM MMP with variable drug concentrations. The Hamilton is programmed to serially dilute up to 11 compounds from a 2.5 mM stock (100% DMSO) to 10× the final compounds concentrations in the assay. Initially, the instrument delivers various amounts of microfluoromentric reaction buffer (MRB) to a 96 tube rack of 1 ml Marsh dilution tubes. The instrument then picks up 20 μl of inhibitor (2.5 mM) from the sample rack and mixes it with a buffer in row A of the Marsh rack, resulting in a 50 μM drug concentration. The inhibitors are then serially diluted to 10, 5, 1, 0.2, 0.05 and 0.01 μM. […] The instrument re-mixes and loads 14.5 μl of diluted compound from rows A to G in the Marsh rack to corresponding rows in the microtiter plate. (Row H represents the "background" row and 39.5 μl of MRB is delivered in placed of drug or enzyme). […] (The enzyme reservoir is pretreated with 1% BSA in 50 mM Tris, pH 7.5 containing 150 mM NaCl for 1 hour at room temp., followed by extensive H2 O washing and drying at room temp.).
IC50 and Ki Determination in Microfluorometric Assay: Data generated on the Cytofluor II is copied from an exported ".CSV" file to a master Excel spreadsheet. Data from several different MMPs (one 96 well plate per MMP) were calculated simultaneously. The percent inhibition is determination for each drug concentration by comparing the amount of hydrolysis (fluorescence units generated over 25 minutes of hydrolysis) of wells containing compound with the "enzyme only" wells in column 1.

The target of assay [3] is T2, Human Recombinant Gelatinase A (MMP-2) (Homo sapiens, UniProt P08253).
T2 sequence (P08253 110-660): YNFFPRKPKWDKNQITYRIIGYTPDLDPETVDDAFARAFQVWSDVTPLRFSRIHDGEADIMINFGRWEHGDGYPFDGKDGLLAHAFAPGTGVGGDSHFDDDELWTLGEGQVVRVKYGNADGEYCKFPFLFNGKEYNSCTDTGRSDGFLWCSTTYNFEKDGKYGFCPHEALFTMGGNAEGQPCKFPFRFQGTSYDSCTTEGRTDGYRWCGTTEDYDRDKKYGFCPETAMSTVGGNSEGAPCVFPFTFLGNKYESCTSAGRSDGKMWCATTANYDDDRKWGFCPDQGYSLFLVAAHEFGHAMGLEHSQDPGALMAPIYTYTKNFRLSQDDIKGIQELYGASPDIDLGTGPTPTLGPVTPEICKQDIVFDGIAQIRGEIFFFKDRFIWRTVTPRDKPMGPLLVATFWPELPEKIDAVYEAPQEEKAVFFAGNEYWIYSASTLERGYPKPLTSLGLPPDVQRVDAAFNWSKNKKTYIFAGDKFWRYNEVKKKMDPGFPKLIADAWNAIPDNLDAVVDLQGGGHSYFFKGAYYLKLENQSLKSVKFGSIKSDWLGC
In words: P218 quenched fluorescence (microfluorometric profiling) assay, MMP-2. The assay is classed as biochemical.

For assay [4], the target named is T3, Human Recombinant Gelatinase B (MMP-9) (Homo sapiens, UniProt P14780).
T3 construct: made in house
T3 sequence (P14780 107-707 limits assumed): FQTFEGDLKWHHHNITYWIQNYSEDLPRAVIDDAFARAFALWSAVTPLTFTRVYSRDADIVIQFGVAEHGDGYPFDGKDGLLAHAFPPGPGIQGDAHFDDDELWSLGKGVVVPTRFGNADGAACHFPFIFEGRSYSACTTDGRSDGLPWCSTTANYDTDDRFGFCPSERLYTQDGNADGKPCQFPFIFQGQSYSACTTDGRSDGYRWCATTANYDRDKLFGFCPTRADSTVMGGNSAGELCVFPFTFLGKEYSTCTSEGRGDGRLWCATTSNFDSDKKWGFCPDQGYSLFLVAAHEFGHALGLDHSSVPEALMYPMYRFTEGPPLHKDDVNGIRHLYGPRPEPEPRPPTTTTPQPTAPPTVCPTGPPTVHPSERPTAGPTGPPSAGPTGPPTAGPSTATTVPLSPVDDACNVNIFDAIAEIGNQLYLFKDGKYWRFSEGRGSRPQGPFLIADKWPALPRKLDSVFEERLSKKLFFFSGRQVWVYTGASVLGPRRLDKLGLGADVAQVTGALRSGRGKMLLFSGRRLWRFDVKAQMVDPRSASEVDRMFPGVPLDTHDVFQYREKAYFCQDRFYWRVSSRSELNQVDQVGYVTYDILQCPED
The assay is described as follows: P218 quenched fluorescence (microfluorometric profiling) assay, MMP-9. The assay is classed as biochemical. On the procedure: The assay was run with each invention compound and the three MMPs, Mmp-3, MMP-9 and MMP-2, analyzed in parallel, adapted as follows for a 96-well microtiter plate and a Hamilton AT® workstation. […] P218 is currently being produced BACHEM exclusively for Bayer. P218 has the structure: […] The enzyme was dialyzed against the same buffer to remove the APMA. Hamiltion Microlab AT Plus: The MMP-Profiling Assay is performed robotically on a Hamilton MicroLab AT Plus®. The Hamilton is programmed to: (1) serially dilute up to 11 potential inhibitors automatically from a 2.5 mM stock in 100% DMSO; (2) distribute substrate followed by inhibitor into a 96 well Cytofluor plate; and (3) add a single enzyme to the plate with mixing to start the reaction. Subsequent plates for each additional enzyme are prepared automatically by beginning the program at the substrate addition point, remixing the diluted inhibitors and beginning the reaction by addition of enzyme. In this way, all MMP assays were done using the same inhibitor dilutions. Millipore Cytofluor II. […] MMP Microfluorometric Profiling Assay. […] The Hamilton is programmed to serially dilute up to 11 compounds from a 2.5 mM stock (100% DMSO) to 10× the final compounds concentrations in the assay. Initially, the instrument delivers various amounts of microfluoromentric reaction buffer (MRB) to a 96 tube rack of 1 ml Marsh dilution tubes. The instrument then picks up 20 μl of inhibitor (2.5 mM) from the sample rack and mixes it with a buffer in row A of the Marsh rack, resulting in a 50 μM drug concentration. The inhibitors are then serially diluted to 10, 5, 1, 0.2, 0.05 and 0.01 μM. […] The instrument re-mixes and loads 14.5 μl of diluted compound from rows A to G in the Marsh rack to corresponding rows in the microtiter plate. (Row H represents the "background" row and 39.5 μl of MRB is delivered in placed of drug or enzyme). […] After addition and mixing of the enzyme, the plate is covered and incubated for 25 min. at 37° C. Additional enzymes are tested in the same manner by beginning the Hamilton program with the distribution of P218 substrate to the microtiter plate, followed by re-mixing and distribution of the drug from the same Marsh rack to the microtiter plate. The second (or third, etc.) MMP to be tested is then distributed from a reagent rack to the microtiter plate with mixing, prior to covering and incubation. This is repeated for all additional MMP's to be tested. IC50 and Ki Determination in Microfluorometric Assay: Data generated on the Cytofluor II is copied from an exported ".CSV" file to a master Excel spreadsheet. […] The percent inhibition is determination for each drug concentration by comparing the amount of hydrolysis (fluorescence units generated over 25 minutes of hydrolysis) of wells containing compound with the "enzyme only" wells in column 1. Following subtraction of the background the percent inhibition was calculated as: ((Control values-Treated values)/Control values)×100 Percent inhibitions were determined for inhibitor concentrations of 5, 1, 0.5, 0.1, 0.02, 0.005 and, 0.001 μM of drug. Linear regression analysis of percent inhibition versus log inhibitor concentration was used to obtain IC50 values.

Assay [5] has as its system human ovarian carcinoma xenografts. The conditions noted are these: batimastat given intraperitoneally; cited from earlier work.
Another assay relates to human colon tumor. The conditions noted are these: intraperitoneally; orthotopic model in nude mice; cited from earlier work.
Where [6] appears, read: P218 6 μM, pH 6.5, 25 min, 37° C., read-out: MMP-2 Ki.
Setting [7] is: P218 6 μM, pH 6.5, 25 min, 37° C., read-out: MMP-3 Ki.
Setting [8] is: P218 6 μM, pH 6.5, 25 min, 37° C., read-out: MMP-9 Ki.

Read-outs that look alike come from different tables or passages of the source.

As a reminder, the Ki is a dissociation constant, usually derived from enzyme kinetics or from competition with a known ligand.

T1 sequence (P08254 100-477): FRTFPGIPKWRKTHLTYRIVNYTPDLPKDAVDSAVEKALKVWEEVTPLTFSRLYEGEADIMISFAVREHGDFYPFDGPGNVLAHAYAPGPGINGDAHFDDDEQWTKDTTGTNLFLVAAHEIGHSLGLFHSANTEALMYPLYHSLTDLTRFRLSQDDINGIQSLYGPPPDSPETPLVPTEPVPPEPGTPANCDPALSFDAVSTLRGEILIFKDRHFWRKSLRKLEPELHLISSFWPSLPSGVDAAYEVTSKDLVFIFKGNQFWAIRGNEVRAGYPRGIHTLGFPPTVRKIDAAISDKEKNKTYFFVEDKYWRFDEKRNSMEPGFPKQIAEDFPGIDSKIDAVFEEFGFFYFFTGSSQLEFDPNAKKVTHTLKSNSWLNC

Turning to `CC(CC(=O)c1ccc(-c2ccccc2)cc1)C(=O)O` (centres unmarked) [XLVII], in assay [1], the “activity as anti-inflammatory analgesic agents” value (“activity” below) is “inactive”.

For `O=C(CC(CCc1ccccc1C(=O)N1CCOCC1)C(=O)O)c1ccc(-c2ccc(Cl)cc2)cc1` (centres unmarked) [II], the Ki in assay [2] came to 0.122 µM; in assay [3] (setting [6]), 0.0121 µM; in assay [4], 0.323 µM.

With `CCOC(=O)CCNC(=O)c1ccccc1CCC(CC(=O)c1ccc(-c2ccc(Cl)cc2)cc1)C(=O)O` (centres unmarked) [VII], the results for the inhibition constant Ki in assay [2], in assay [3] and in assay [4] were 0.131 µM, 0.0271 µM and 0.478 µM, respectively.

As for `O=C(O)CC(C(=O)c1ccc(-c2ccccc2)cc1)c1ccccc1` (centres unmarked) [LXXVII], the “activity” value in assay [1] was “inactive”.

With `O=C(CC(CCc1cccc(C(=O)N2CCCCC2)c1)C(=O)O)c1ccc(-c2ccc(Cl)cc2)cc1` (stereo not drawn) [XI, 4'-chloro-γ-oxo-α-[2-[3-(1-piperidinylcarbonyl)phenyl]ethyl]-[1,1'-biphenyl]-4-butanoic acid], the figures for the inhibitory constant (Ki) in assay [2] (setting [7]), in assay [3] (setting [6]) and in assay [4] (setting [8]) were 0.0344 µM, 0.0103 µM and 0.0581 µM, respectively.

With `O=C(CC(CCc1ccccc1C(=O)N1CCCCC1)C(=O)O)c1ccc(-c2ccc(OCc3ccccc3)cc2)cc1` (centres unmarked) [Compound XXXII], the Ki in assay [2] (setting [7]) is 0.0148 µM; in assay [3], 0.013 µM; in assay [4] (setting [8]), 0.167 µM.

Turning to `O=C(CC(C(=O)O)c1ccccc1)c1ccc(-c2ccccc2)cc1` (centres unmarked) [XLIX], the “activity” value in assay [1] is “inactive”.

Regarding `O=C(CC(CCc1ccc(C(=O)NCCN2CCOCC2)cc1)C(=O)O)c1ccc(-c2ccc(Cl)cc2)cc1` (centres unmarked) [XXIX], the inhibition constant Ki in assay [2] (read-out: MMP-3 Ki, P218 6 μM, pH 6.5, 25 min, 37° C.) was 0.465 µM; in assay [3] (setting [6]) it was 0.0814 µM; in assay [4] (read-out: MMP-9 Ki, P218 6 μM, pH 6.5, 25 min, 37° C.), 0.449 µM.

Take `O=C(CC(CCc1cccc(C(=O)NCCN2CCOCC2)c1)C(=O)O)c1ccc(-c2ccc(Cl)cc2)cc1` (stereo not drawn) [XXVII, 4'-chloro-α-[2-[3-[[[2-(-morpholinyl)ethyl]amino]carbonyl]phenyl]ethyl]-γ-oxo-[1,1'-biphenyl]-4-butanoic acid]: the figures for the inhibition constant Ki in assay [2] (setting [7]), in assay [3] and in assay [4] (setting [8]) were 0.353 µM, 0.048 µM and 0.786 µM, respectively.

Regarding `O=C(O)CCNC(=O)c1cccc(CCC(CC(=O)c2ccc(-c3ccc(Cl)cc3)cc2)C(=O)O)c1` (stereo not drawn) [Compound XXVI, α-[2-[3-[[(2-carboxyethyl)amino]carbonyl]phenyl]ethyl]-4'-chloro-γ-oxo-[1,1'-biphenyl]-4-butanoic acid], the Ki was 0.178 µM in assay [2] (setting [7]), 0.0766 µM in assay [3] (setting [6]) and 0.706 µM in assay [4] (setting [8]).

For `CNC(=O)[C@H](Cc1ccccc1)NC(=O)[C@H](CC(C)C)[C@H](CSc1cccs1)C(=O)NO` [batimastat], the “survival of mice bearing human ovarian carcinoma xenografts” value in assay [5] is given as “prolongs the survival”. Besides, the “human colon tumor growth and spread” value in the assay with human colon tumor was “inhibits human colon tumor growth and spread”.

Take `O=C(CC(CCc1ccccc1C(=O)NCCN1CCOCC1)C(=O)O)c1ccc(-c2ccc(Cl)cc2)cc1` (stereo not drawn) [Compound XXV, 4'-chloro-α-[2 [2-[[[2-(4-morpholinyl)ethyl]amino]carbonyl]phenyl]ethyl]-γ-oxo-[1,1'-biphenyl]-4-butanoic acid]: the Ki in assay [2] (setting [7]) is 0.371 µM; in assay [3] (setting [6]), 0.0514 µM; in assay [4] (setting [8]), 0.744 µM.

For the compound `O=C(CC(CCc1ccc(C(=O)N2CCOCC2)cc1)C(=O)O)c1ccc(-c2ccc(Cl)cc2)cc1` (stereo not drawn) [XVII, 4'-chloro-α-[2-[4-(4-morpholinylcarbonyl)phenyl]ethyl]-γ-oxo-[1,1'-biphenyl]-4-butanoic acid], the Ki came to 0.236 µM in assay [2], 0.0536 µM in assay [3] (setting [6]) and 0.606 µM in assay [4].

The record behind these values is patent US5804581A, “Inhibition of matrix metalloproteases by substituted phenalkyl compounds” (Bayer Corporation, priority 1997, dated 1998).
